Reference: patent publication US20040057943A1, “Probiotic strains, a process for the selection of them, compositions thereof, and their use” (priority 2002, published 2004)

Test system: Salmonella typhmurium and Escherichia coli
Experiment: Production of antimicrobial metabolites, agar well diffusion assay
Assay type: cell-based
Conditions: pH 4.5; data not shown
Experimental: The probiotic strains of this invention were assessed for their capability to produce antimicrobial metabolites using an agar well diffusion assay. MRS agar plates containing 10^6 cfu/ml of different pathogenic bacteria strain (Salmonella typhmurium and Escherichia coli) were prepared. Wells, with a diameter of 5 mm, where then cut in the agar using a sterile cork-borer. Then, 50 μl of a 2 fold concentrate supernatant of each probiotic strain culture were added to the wells and allowed to diffuse into the agar during a 2 hours preincubation period at 4° C., followed by aerobic incubation of the plates at 37° C. for 16-18 hours. The antimicrobial activity of each supernatant was considered high if the diameter of the inhibition hallo for both pathogenic bacteria strains was >12, moderate between 8 and 12, and slight <8 (FIG. 11)
Moreover, it was also tested if the antimicrobial activity of the supernatants was due to a antimicrobial substance or to the production of metabolic acids. […] It was also tested the antimicrobial capabilities of supernatants obtained from bacterial cultures using glucose or lactose as a carbohydrate source.

SMILES	Inhibitory effect of a dilution of metabolic acid on growth of Salmonella or E. coli
CC(=O)O [acetic]	None of these situations inhibited the growth
CCCC(=O)O [butyric, butyric acid]	None of these situations inhibited the growth
